How the values were obtained:
[1] = clinical studies; cited from earlier work
[2] = tested on: saponin-semipermeabilized skeletal muscle fibres of the rat; assay: Isometric force of saponin-semipermeabilized (skinned) skeletal muscle fibres, indirect measure of Ca2+ release from the SR; conditions: for Ca2+ sensitivity of the contractile apparatus / increase of maximum force development compared with the control: slow skeletal musculature (M. soleus); for Ca2+ sensitivity of the contractile apparatus: 5-10 μM; for increase of maximum force development compared with the control: equimolar concentration 5-10 μM
Method: The aim of this test procedure was therefore to examine what functional significance these sequences—in the form of synthetic peptides—have compared with the whole protein for the regulation of the Ca^2+ release from the SR. The Ca^2+ release was measured indirectly on saponin-semipermeabilized skeletal muscle fibres of the rat over an isometric force gradient. The measurement of the isometric force before and after addition of S100A1 peptide/protein served as a control.

[3] = tested on: neonatal rat cardiomyocytes; assay: Intracellular Ca2+ transients in cultivated neonatal rat cardiomyocytes after co-cultivation with recombinant S100A1; type: cell-based; conditions: S100A1 1 μM to 10 μM at two-day intervals, 7 days
Method: Neonatal rat hearts were removed from 3-day-old rats, ventricles separated from the atria and stored coarse-ground on ice in ADS buffer (6.8 g NaCl, 4.76 g HEPES, 0.12 g NaH2PO4, 1 g glucose, 0.4 g KCl, 0.1 g MgSO4 and 1000 ml H2O). In a bioreactor (Wheaton® container), the cells were then separated from the tissue assembly by means of collagenase digestion (108 U/mg/ml collagenase, Worthington, USA), and the released cells separated over a density gradient (Percoll, Pharmacia®) by centrifugation. The cardiomyocyte fraction was resuspended in cell culture medium (DMEM+10% newborn calf serum) and plated in a density of approx. 100,000 cardiomyocytes per well on 24-well cell culture plates. After 24 hours culture at 37° C. and 5% CO2, recombinant S100A1 was added to the cell culture medium at two-day intervals in concentrations of 1 μM to 10 μM. […] The intracellular Ca^2+ transients were then detected and quantified by means of inverse fluorescence microscopy (Olympus OSP 3®) under both rest conditions and electrical field stimulation (PHYWE®-bioelectrical measurement unit; frequencies of 30-300 bpm). […] The changes in the Ca^2+ concentration per time unit were measured as a quotient from the time until the signal maximum and the signal amplitude (+dc/dt) were reached or as a quotient of the time until the half amplitude and the signal amplitude (−dc/dt) were reached. […]

[4] = tested on: microtubuli and intermediate filaments; conditions: biochemical reconstitutive assays; cited from earlier work
protein kinase C = conditions: cited from earlier work

COc1ccc(-c2nc3ccc(C4=NNC(=O)CC4C)cc3[nH]2)cc1 (stereo not shown) [pimobendan]
improvement of the heart function compared with placebo [1]: no significant improvement of the heart function

combination of the three peptides: Combination of the N-terminal, hinge region and C-terminal synthetic S100A1 peptides (peptide 1 GSELETAMETLINVF; peptide 2 LSGFLDAQKDVDA; peptide 3 YVVLVAALTVA)
Ca2+ sensitivity of the contractile apparatus [2]: unchanged | increase of maximum force development compared with the control [2]: 49%±6%

combination of “C-terminal” peptide and the “hinge region”: Combination of the C-terminal and hinge region synthetic S100A1 peptides (peptide 1 LSGFLDAQKDVDA; peptide 2 YVVLVAALTVA)
increase of isometric force development ([2]; before versus after addition of peptide): 15%±4%

recombinant S100A1: Human recombinant Ca2+-binding protein S100A1 (SEQ ID NO: 2) prepared in genetically modified E. coli
rise in the Ca2+ concentration per time unit in the systole (+dc/dt), increase in comparison with the control cell population ([3]; p<0.0002): 3 times | drop in the Ca2+ concentration per time unit in the diastole (-dc/dt), acceleration in comparison with the control cell population ([3]; p<0.0003): 2.2 times | Ca2+ sensitivity of the contractile apparatus [2]: unchanged | increase of maximum force development compared with the control [2]: 52%±7% | polymerization of microtubuli and of intermediate filaments [4]: inhibition | effect on protein kinase C (protein kinase C): inhibition
